The values below are quoted from earlier work in US8703739B2, “Intravascular indwelling catheter lock solution containing weak acid and container containing the same” (priority 2008, dated 2014).

Like-named read-outs stand apart in the source and are kept apart here.

As for `O=C1O[C@H]([C@@H](O)CO)C(O)=C1O` [ascorbic acid], the “Buffer pKa” value (first pKa) was 4.16. Regarding `O=C(O)CC(O)C(=O)O` (stereo not drawn) [malic acid], the “Buffer pKa” value was 3.23 (first pKa) and 4.77 (second pKa).
